For 64 molecules, CC50 results are on record in ChEMBL document CHEMBL5303711, “ECBD screening data for assay EOS300108” (2023).

SMILES strings stand for the structures. The source made the active and inactive calls. The rule behind the calls is not given here.

A short description of the data set: Cytotoxicity activity against human HepG2 cells assessed by CellTiter-Glo luminescent cell viability assay. Also noted: assay stage confirmatory assay, source tissue liver. The following applies: HepG2 cells, read-out: IC50 relative. It counts as toxicity, cell-based.
For the molecule `Cc1ccc(C)c(C(=O)CN2C3=NCCCN3c3ccccc32)c1`, the CC50 was 9.6 µM (active).
For `O=c1oc(-c2ccccc2)cc(Cl)c1Cl` the value was 5.5 µM (active); for `Oc1cc(O)c2sc(Nc3ccc(F)cc3)nc2n1`, 5.1 µM (active).
For `Clc1nss/c1=N\c1ccc(Br)cc1` the value was 24.2 µM (inactive); for `Cc1ccc(/N=c2\ssnc2Cl)nc1`, 16.4 µM (inactive); for `CCCCc1c(C)[nH]n(-c2nc3ccccc3[nH]2)c1=O`, 8.9 µM (active).
As to `COc1cc(NCCCC(C)N)c2ncccc2c1` (centres undefined), the CC50 is 8.6 µM (active).
As for `CNc1nc2c(=O)[nH]c(N)nc2n1[C@@H]1O[C@H](CO)[C@@H](O)[C@H]1O`, the CC50 was 11.4 µM (active).
With `COc1cc(-c2nnc(SC3=CS(=O)(=O)c4ccccc43)o2)cc(OC)c1OC`, the CC50 was 2.5 µM (active).
For `Oc1cccc2ccc(Nc3ccccn3)nc12`, the CC50 was 0.7 µM (active).
For the molecule `CN1CCC2(CC1)CN(S(=O)(=O)c1ccc(Cl)s1)Cc1ccccc1O2`, the CC50 is 9.7 µM (active).
In the case of `CCOc1ccc(C(=O)Nc2nc3ccc(S(=O)(=O)N(C)C)cc3s2)cc1`, the CC50 is 19.3 µM (inactive).
As to `COc1ccccc1OCCOCCOCCOc1ccccc1OC`, the CC50 was 12.6 µM (inactive).
With `O=C(c1ccc(Cl)cc1)N(CCCc1ccccc1)CCS(=O)(=O)N1CCNCC1`, the CC50 was 10.2 µM (active).
Take `Cc1ccn(-c2cc(N3CCN(C(=O)Nc4ccc5c(c4)OCCO5)CC3)ncn2)n1`: the CC50 was 10.7 µM (active).
Regarding `CC(C)N1CCN(Cc2nc(Cn3ccn4nc(-c5ccccc5)cc4c3=O)no2)CC1`, the CC50 is 8.2 µM (active).
With `CCc1ccc(S(=O)(=O)N2CCN(c3cc(-n4ccc(C)n4)ncn3)CC2)cc1`, the CC50 was 6.7 µM (active).
On to `Cc1[nH]c2c(C)ccc(F)c2c1CCN`, for which the CC50 was 11.7 µM (active).
Turning to `OCCOCCNCc1ccc(-c2cc(Cl)cc(Cl)c2)o1`, the CC50 was 11.7 µM (active).
For `CC1(C)C2CC=C(CN(CCN3CCNCC3)C(=O)c3ccccc3Cl)C1C2` (centres undefined) the value was 14.3 µM (inactive); for `O=C(Nc1cccnc1)c1ccc(Cn2nc(N3CCN(c4ccccc4)CC3)ccc2=O)o1`, 5.7 µM (active); for `CC(C)N1CC(CN)C2(CCCCC2)C1` (centres undefined), 11.6 µM (active).
Consider `Cc1ccc(N2N=C(C(=O)N3CCCC3)S(=O)(=O)c3cccnc32)cc1`, for which the CC50 is 3.3 µM (active).
Consider `CCN(CC)CCN(C(C)=O)c1nc2cc(C)cc(C)c2s1`, for which the CC50 is 8.6 µM (active).
The result for `CC(C)COCC(O)CN1CCCN(c2ccc(NC(=O)COc3ccc(Cl)cc3)cn2)CC1` (centres undefined) reads 5.8 µM (active); that for `NCC(c1ccc(Cl)cc1)C1CCCC1` (centres undefined), 8 µM (active).
Consider `Cc1cn2c(=O)c(S(=O)(=O)NCC3CCN(Cc4ccc(Cl)cc4)CC3)c(C)nc2s1`, for which the CC50 was 11.9 µM (active).
Consider `CC(N)Cc1ccc2oc3ccccc3c2c1` (centres undefined), for which the CC50 is 8 µM (active).
For `Cc1[nH]c(C(=O)Nc2ccc(C#N)cc2)c(C)c1S(=O)(=O)N1CCCC1` the value was 17.9 µM (inactive).
On to `COc1cccc(C(=O)/N=c2\sc(C)c(C)n2Cc2ccc(C(=O)NCCN(C)C)o2)c1`, for which the CC50 was 12.2 µM (active).
As to `CC(C)Oc1ccc(C(=O)Nc2ccc3c(c2)N(S(C)(=O)=O)CCC3)cc1`, the CC50 was 2.7 µM (active).
For `COc1ccc(-c2cn3nc(N4CCC(C(=O)NCCN(C)C)CC4)sc3n2)cc1` the value was 3.6 µM (active); for `CC(=O)CCS(=O)(=O)c1ccc(Cc2ccc(S(=O)(=O)CCC(C)=O)cc2)cc1`, 9.2 µM (active); for `Cc1ccn(-c2cc(N3CCN(C(=O)Nc4ccc5c(c4)OCO5)CC3)ncn2)n1`, 15.7 µM (inactive).
As for `Cc1ccc(N2N=C(C(=O)NCCN3CCOCC3)S(=O)(=O)c3cc(F)ccc32)cc1`, the CC50 is 11.2 µM (active).
As for `Cc1nc(-c2cccc(C(=O)N3CCN(Cc4noc(-c5ccc(F)cc5)n4)CC3)c2)no1`, the CC50 was 5.4 µM (active).
In the case of `COc1ccc(OC)c([N+]2=C3SCCCN3C(O)(c3ccc(C)cc3)C2)c1` (centres undefined), the CC50 is 11.6 µM (active).
Consider `Nc1nc(Nc2ccccc2F)nc2ccccc12`, for which the CC50 is 8.4 µM (active).
For `CCCCc1cc(=O)oc2c(C)c(OCC(=O)NCCN(C)C)ccc12` the value was 13 µM (inactive); for `Cc1ccc(NC(=O)c2nc(S(C)(=O)=O)ncc2Cl)cc1`, 4.1 µM (active).
With `Cc1c(O)ccc2c(CN3CCN(c4ccc(F)cc4)CC3)cc(=O)oc12`, the CC50 is 24.8 µM (inactive).
For the molecule `CN(C)CCN(CCCN)Cc1ccco1`, the CC50 was 12.3 µM (active).
With `CC1=NN(C(=O)c2ccc(N(C)C)cc2)C(O)(C(F)(F)F)C1` (centres undefined), the CC50 is 25 µM (inactive).
Regarding `CCOc1cccc(OCC)c2c(C)nc(C)c1-2`, the CC50 is 26.6 µM (inactive).
For the molecule `CNS(=O)(=O)c1cc(-c2cc(C(=O)Nc3cccc(OC)c3)n[nH]2)ccc1OC`, the CC50 is 9.2 µM (active).
For the molecule `Cc1ccc(C)c(N2CCN(CCCNC(=O)CC3Oc4ccccc4NC3=O)CC2)c1` (centres undefined), the CC50 is 15.7 µM (active).
Regarding `CCn1cc(CN2C[C@@H]3C[C@H](NC(C)=O)CN3C(=O)[C@@H]2CC(C)C)c2ccccc21`, the CC50 was 13.6 µM (inactive).
Regarding `CCc1cccc(NC(=O)N2CCN(c3ccnc(N4CCCC4)n3)CC2)c1`, the CC50 was 13.5 µM (inactive).
With `O=C(Nc1nnc2ccccn12)c1ccc(F)c(Cl)c1`, the CC50 is 2.7 µM (active).
For `CC(=O)N1CCCSc2ccc(S(=O)(=O)NCCCc3ccccc3)cc21` the value was 12.2 µM (active); for `CC(=O)C1=C(c2ccc(Br)cc2)N(C(C)=O)n2c(C)nnc2S1`, 10.9 µM (active).
The result for `COc1ccccc1-c1nnc(-c2ccccc2O)o1` reads 5.3 µM (active); that for `COc1cccc(NC(=O)N2CCN(c3ccnc(N4CCCCC4)n3)CC2)c1`, 11.5 µM (active).
On to `CCOCC(=O)N1CCN(c2nc3c(s2)c(C)nn3-c2ccc(OC)cc2)CC1`, for which the CC50 is 11.5 µM (active).
With `CC(C(=O)NCCN(C)C)C1CCN(C(=O)c2cc3cc(Cl)ccc3[nH]2)CC1` (centres undefined), the CC50 is 6.3 µM (active).
For `Cc1noc2ncnc(N3CCC(C(=O)N4CCc5ccccc54)CC3)c12` the value was 10.9 µM (active); for `COc1cccc(S(=O)(=O)N2CCC3(CC2)CC(CCOc2ccncc2)CCO3)c1` (centres undefined), 13.2 µM (active).
Take `COc1ccc(NS(=O)(=O)c2ccc(-c3cnc(C)o3)cc2)cc1OC`: the CC50 is 3.6 µM (active).
Turning to `O=C(CCCCCn1sc2ccccc2c1=O)Nc1ccc2c(c1)OCO2`, the CC50 was 3.5 µM (active).
For `COc1ccc(C(=O)N[C@@H]2CN(Cc3ccccc3)C[C@H]2CN(C)C)cc1F` the value was 12.1 µM (active); for `CCCS(=O)(=O)Nc1ccc(Nc2nc(C)cc(N(CC)CC)n2)cc1`, 6.4 µM (active); for `Cc1nc2n(c(=O)c1C)CN(CCCO)CN2c1ccc(Cl)cc1Cl`, 50 µM (inactive).
For `Clc1ccc(OCC2CCCNC2)c2ccccc12` (centres undefined) the value was 2 µM (active).
For `COc1cc(/N=c2\ssnc2Cl)cc(OC)c1OC`, the CC50 is 8.1 µM (active).
